Read-outs that look alike come from different tables or passages of the source.
How the values were obtained:
[1] = test system: PDE4; experiment: Evaluation of PDE4 inhibitory activity, scintillation proximity assay; type: biochemical; conditions: for PDE4 inhibitory activity: summary in words of Tables 57 to 69
In short: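 IC50 was derived from inhibition curves, referenced to an enzyme-free blank and a DMSO-only control. Compound, PDE4 preparation and tritiated cAMP reacted 120 min at RT in Tris-HCl buffer (pH 7.4) with MgCl2, EGTA and BSA; YSi-SPA beads with ZnSO4 bound product before scintillation counting.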

[2] = test system: TNFα; experiment: Cytokine suppression using whole human blood: TNFα (lipopolysaccharide stimulus); type: cell-based; conditions: human whole blood, read-out: TNFα Inhibitory Activity, Human Whole Blood (Test Example 3)
Experimental: The test compound dissolved in dimethyl sulfoxide was added to a 96-well plate, and RPMI-1640 medium and human peripheral blood containing sodium heparin were added, followed by culture at 37° C. under 5% CO2 for 1 hour. A medium containing only dimethyl sulfoxide instead of the test compound was added to the control well. To each well, lipopolysaccharide (final concentration 10 ng/mL) as a TNFα production stimulant, or phytohaemagglutinin (final concentration 20 μg/mL) as an IL-17A production stimulant, or CytoStim reagent ( 1/100 concentration) and CD28 antibody (final concentration 2.5 ng/mL) as an IL-4 production stimulant and an IL-5 production stimulant were added, followed by culture at 37° C. under 5% CO2. The culture was carried out for about 18 hours for the evaluation of the amount of TNFα, and for about 48 hours for the evaluation of the amounts of IL-17A, IL-4, and IL-5.
After collecting the culture supernatant after culturing, the amount of each cytokine was measured by the sandwich ELISA method. The cytokine production suppression rate (inhibition rate) by the test compound was calculated by the following formula from the cytokine production amount when the test compound was added, with the cytokine production amount for the control well as 100%. Inhibition Rate={1−(Cytokine Amount at Addition of Each Test Compound)/(Cytokine Amount for Control Well)}×100
In addition, the cytokine inhibitory activity (concentration for the inhibition rate of 50%) of the test compound was calculated from the inhibition curves based on the inhibition rates for various concentrations of the test compound.
The measurement results obtained by measuring the TNFα inhibitory activity and IL-5 inhibitory activity (50% inhibitory concentration) of the test compounds by the above method were evaluated in accordance with the following evaluated basis; A: less than 100 nM, B: 100 nM or more and less than 500 nM, and C: 500 nM or more. In addition, the measurement results obtained by measuring the IL-17A inhibitory activity and IL-4 inhibitory activity (50% inhibitory concentration) of the test compounds were evaluated in accordance with the following evaluated basis; A: less than 500 nM, B: 500 nM or more and less than 5000 nM, and C: 5000 nM or more.

[3] = test system: TGF-β; experiment: TGF-β inhibitory activity using THP1 cells differentiated into macrophages; type: cell-based; conditions: Homo sapiens, THP-1; THP1 cells differentiated into macrophages, lipopolysaccharide 1 μg/mL, about 7 hours; read-out: TFG-β Inhibitory Activity (Test Example 6)
Experimental: The TGF-β inhibitory activity was measured using THP1 cells as follows. First, THP1 cells were seeded on a 24-well culture plate at […], and culture was carried out overnight at 37° C. and 5% CO2 in RPMI-1640 medium (containing 10% fetal bovine serum, penicillin, and streptomycin) supplemented with 100 nM phorbol myristate acetate. After that, the cells were differentiated into macrophages by changing to RPMI-1640 medium without phorbol myristate acetate, followed by further culture at 37° C. under 5% CO2 overnight. Next, the THP1 culture plate was washed once with PBS(−) 1 mL/well, and then the test compound and lipopolysaccharide (final concentration 1 μg/mL) were added, followed by culture at 37° C. under 5% CO2 for about 7 hours. After culturing, the entire amount of the medium was collected, and the amount of TGF-β in the centrifuged supernatant was quantified by the sandwich ELISA method. The non-addition of lipopolysaccharide was used as a blank, and the control was obtained by adding only dimethyl sulfoxide instead of the test compound, and the inhibition rate of the test compound against the control was calculated by the following formula. Inhibition Rate (%)={1−(Value at Addition of Each Test Compound−Blank Value)/(Control Value−Blank Value)}×100
In addition, the TGF-β inhibitory activity (concentration for the inhibition rate of 50%) of the test compound was calculated from the inhibition curves based on the inhibition rate for various concentrations of the test compound.
The measurement results obtained by measuring the TFG-β inhibitory activity (50% inhibitory concentration) of the test compounds by the above method were evaluated in accordance with the following evaluated basis; A: less than 1 μM, and B: 1 μM or more.

[4] = test system: oxazolone-induced auricle edema, BALB/c mice; experiment: Hapten repeated application mouse chronic dermatitis model (oral, topical); type: in vivo; conditions: oral, 0.3 to 10 mg/kg twice a day for 10 days
Experimental: Evaluation was carried out using female BALB/c mice (7 to 8 weeks of age). First, the hair of the abdomen of the mice was treated with a hair clipper, and then 150 μL of a 3% oxazolone acetone/ethanol solution was applied to the abdomen as a hapten. One week later, 20 μL/ear of 1% oxazolone acetone/ethanol solution was applied to the outer surface of the auricle of both ears of the mice 3 times/week to induce inflammation. A 1% oxazolone-acetone/ethanol solution was applied every other day for 10 days from 1 week after the start of inflammation induction. In addition, for 10 days from 1 week after the start of inflammation induction, the test compound suspended in 0.5% w/v methylcellulose (0.5% MC) was orally administered at 0.3 to 10 mg/kg twice a day (10 μL/g), or 20 μL of a 0.3 to 3% test compound dissolved in an acetone/ethanol solution was applied once or twice a day (topical administration). A 1% oxazolone was not applied to the blank. The control was one in which 1% oxazolone was applied and only 0.5% MC was orally administered without using the test compound, or only an acetone/ethanol solution was applied.
After administration for 10 days, auricle thickness was measured using a dial thickness gauge, and the changes in auricular thickness before the treatment (immediately before the start of administration of the test compound) and after the treatment (after the administration of the test compound for 10 days) were used to calculate the edema suppression rate by the following formula. Edema Suppression Rate (%)={1−(Auricle Thickness After Treatment by Test Compound−Auricle Thickness Before Treatment by Test Compound)/(Auricle Thickness After Treatment of Control−Auricle Thickness Before Treatment of Control)}×100
The measurement results obtained by measuring the edema suppression rate at the time of oral administration of each test compound by the above method were evaluated in accordance with the following evaluated basis; A: 70% or more, B: 40% or more and less than 70%, and C: less than 40%. In addition, the measurement results obtained by measuring the edema suppression rate at the time of topical administration of each test compound were evaluated in accordance with the following evaluated basis; A: 100% or more, B: 70% or more and less than 100%, and C: less than 70%.

[5] = Hepatic metabolic stability (rat liver microsome method); type: in vitro ADME; conditions: rat liver microsomes 0.5 mg/mL, test substance 1 μM, NADPH 1 mM, 37° C., 30 minutes
In short: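 Scored by % parent left after 30 min (30 min/0 min ×100, LC-MS), banded A ≥75%, B 60–<75%, C 45–<60%, D <45%. Incubation: 1 μM compound, 0.5 mg/mL rat microsomes, pH 7.4 phosphate buffer, 37° C, 5 min preincubation, NADPH 1 mM started, acetonitrile quench.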

[6] = test system: TNFα; experiment: Cytokine suppression using human peripheral blood mononuclear cells: TNFα; type: cell-based; conditions: human PBMC, lipopolysaccharide 1 ng/mL; read-out: TNFα Inhibitory Activity, Human PBMC (Test Example 4)
Experimental: First, peripheral blood mononuclear cells (PBMC) were separated from whole blood by specific gravity centrifugation. Then, the isolated peripheral blood mononuclear cells were added to RPMI-1640 medium (containing 10% fetal bovine serum, penicillin, streptomycin, L-glutamine, and 2-mercaptoethanol), and cultured in a 96-well plate at 37° C. under 5% CO2 for 0 to 1 hour. The test compound dissolved in dimethyl sulfoxide was added to each well, followed by further culture at 37° C. under 5% CO2 for 1 hour. A medium containing only dimethyl sulfoxide instead of the test compound was added to the control well. To each well, lipopolysaccharide (final concentration 1 ng/mL) as a TNFα production stimulant and an IL-23 production stimulant, or concanavalin A (final concentration 20 μg/mL) as an IL-17A production stimulant was added, followed by culture at 37° C. under 5% CO2. In addition, as IL-4 production stimulus, IL-5 production stimulus, and IL-13 production stimulus, PBMC was seeded on a 96-well plate previously coated with a CD3 antibody (final concentration 3 μg/mL), and a CD28 antibody (final concentration 5 ng/mL) was added. The culture was carried out for about 18 hours for the evaluation of the amounts of TNFα and IL-23, and about 48 hours for the evaluation of the amounts of IL-17A, IL-4, IL-5, and IL-13. After collecting the culture supernatant after culturing, the amount of each cytokine was measured by the sandwich ELISA method in the same manner as in Test Example 3, and the cytokine production suppression rate (inhibition rate) and the cytokine inhibitory activity (concentration for the inhibition rate of 50%) of each test compound were calculated.
The measurement results obtained by measuring the TNFα inhibitory activity and IL-5 inhibitory activity (50% inhibitory concentration) of the test compounds by the above method were evaluated in accordance with the following evaluated basis; A: less than 10 nM, B: 10 nM or more and less than 100 nM, and C: 100 nM or more. In addition, the measurement results obtained by measuring the IL-17A inhibitory activity, IL-23 inhibitory activity, IL-4 inhibitory activity, and IL-13 inhibitory activity (50% inhibitory concentration) of the test compounds were evaluated in accordance with the following evaluated basis; A: less than 500 nM, B: 500 nM or more and less than 5000 nM, and C: 5000 nM or more.

[7] = finer grading of compounds rated A in Evaluation 1, read-out: PDE4 Inhibitory Activity (Evaluation 2)
[8] = scintillation proximity assay, read-out: PDE4 Inhibitory Activity (Evaluation 1; concentration for the inhibition rate of 50%)
[9] = scintillation proximity assay, class symbols of Evaluation 1, read-out: PDE4 Inhibitory Activity (concentration for the inhibition rate of 50%, IC50), Evaluation 1

In the case of `CC(C)(O)c1cc(-c2nccs2)c2oc(N3CC4CCC(C3)N4)nc2c1OC(F)(F)F` [Example 195, 2-(2-(3,8-diazabicyclo[3.2.1]octan-3-yl)-7-(thiazol-2-yl)-4-(trifluoromethoxy)benzo[d]oxazol-5-yl)propan-2-ol], the IC50 [1, 7] is reported as at most 1 nM, the IC50 [1, 8] is reported as under 100 nM and the PDE4 inhibitory activity [1] is reported as “particularly excellent”. The IC50 ([2]; Homo sapiens) was 100 to 500 nM, the IC50 [3] was under 1000 nM and the “Mouse Chronic Dermatitis Model (Test Example 8), Oral: edema suppression rate” value (from here on “Mouse Chronic Dermatitis Model”) [4] was “B (B: 40% or more and less than 70%)”.
With `OC(c1ccc(-c2nccs2)c2oc(N3CC4CCC(C3)N4)nc12)C(F)(F)F` (centres unmarked) [Example 118, 1-(2-(3,8-Diazabicyclo[3.2.1]octan-3-yl)-7-(thiazol-2-yl)benzo[d]oxazol-4-yl)-2,2,2-trifluoroethan-1-ol] the IC50 [1, 7] was 1 to 11 nM, the IC50 [1, 9] was under 100 nM and the PDE4 inhibitory activity [1] was “particularly excellent”. For the same compound, the IC50 ([2]; Homo sapiens) was 100 to 500 nM and the “Mouse Chronic Dermatitis Model” value [4] was “B (B: 40% or more and less than 70%)”.
In the case of `OCC(F)(F)Oc1ccc(-c2nccs2)c2oc(N3CC4CC(C3)N4)nc12` [Example 249, 2-((2-(3,6-Diazabicyclo[3.1.1]heptan-3-yl)-7-(thiazol-2-yl)benzo[d]oxazol-4-yl)oxy)-2,2-difluoroethan-1-ol], the IC50 [1, 7] is reported as at most 1 nM, the IC50 [1, 8] is reported as under 100 nM and the PDE4 inhibitory activity [1] is reported as “particularly excellent”. For the same compound, the “Residual ratio (% remaining for 30-minute reaction)” value [5] was “B (B: 60% or more and less than 75%)”, the IC50 ([2]; Homo sapiens) was under 100 nM and the “Mouse Chronic Dermatitis Model” value [4] was “B (B: 40% or more and less than 70%)”.
With `COC(C)(C)c1cc(-c2nccs2)c2oc(N3CC4CCC(C3)N4)nc2c1OC(F)(F)F` [Example 198, 2-(3,8-Diazabicyclo[3.2.1]octan-3-yl)-5-(2-methoxypropan-2-yl)-7-(thiazol-2-yl)-4-(trifluoromethoxy)benzo[d]oxazole] the IC50 [1, 7] was at most 1 nM, the IC50 [1, 8] was under 100 nM and the PDE4 inhibitory activity [1] was “particularly excellent”. It also gave an IC50 ([2]; Homo sapiens) of 100 to 500 nM.
In the case of `OC(c1ccc(-c2nccs2)c2oc(N3CC4CCC(C3)N4)nc12)C(F)(F)F` (centres unmarked) [Example 119, 1-(2-(3,8-Diazabicyclo[3.2.1]octan-3-yl)-7-(thiazol-2-yl)benzo[d]oxazol-4-yl)-2,2,2-trifluoroethan-1-ol], the IC50 [1, 7] is reported as at most 1 nM, the IC50 [1, 9] is reported as under 100 nM and the PDE4 inhibitory activity [1] is reported as “particularly excellent”. For the same compound, the IC50 [2] was under 100 nM, the IC50 [6] was under 10 nM and the “Mouse Chronic Dermatitis Model” value [4] was “A (A: 70% or more)”.
With `COC(C)(C)c1cc(-c2nccs2)c2oc(N3CC4CC(C3)N4)nc2c1C(F)(F)F` [Example 176, 2-(3,6-Diazabicyclo[3.1.1]heptan-3-yl)-5-(2-methoxypropan-2-yl)-7-(thiazol-2-yl)-4-(trifluoromethyl)benzo[d]oxazole] the IC50 [1, 7] was 1 to 11 nM, the IC50 [1, 9] was under 100 nM and the PDE4 inhibitory activity [1] was “particularly excellent”. For the same compound, the IC50 ([2]; Homo sapiens) was 100 to 500 nM and the “Mouse Chronic Dermatitis Model” value [4] was “B (B: 40% or more and less than 70%)”.
